What all share (assay): Kinase selectivity, DiscoverX scanMAX Kinase assay panel (% control)
Format in all cases: binding

Assay [1] concerns the target T1, kinases of the scanMAX Kinase assay panel (Homo sapiens, UniProt P00533, DEL752-759).
T1 construct: purchased DiscoverX Co. (contract measurement) scanMAX Kinase assay panel
The note with it: EGFR(S752-I759de1); 1 uM. The method, then:
(§1) The following experiment was performed to evaluate the activity of the compounds of the present invention to inhibit many enzymes.
(§2) Particularly, the compounds of Examples 8, 64 and 104 were selected among all of those compounds of the invention. DiscoverX Co. was asked to measure the enzyme (kinase) selectivity, and the experiment was performed using scanMAX™ Kinase assay panel.
(§3) Wherein, the concentration of the drug treated to each enzyme was 1 uM in DMSO and the control percentage (% control) was determined by the following Equation 1. (example compound−positive control)/(negative control−positive control)×100 [Equation 1]
(§4) Herein, the positive control indicates the compound showing the % control of 0%, and the negative control indicates DMSO showing the % control of 100%. The enzyme selectivity in the present invention is defined as follows: When the % control for each enzyme is less than 35% (<35%), it is judged that the compound has the activity to the corresponding enzyme.

The target in assay [2] is T2, kinases of the scanMAX Kinase assay panel (Homo sapiens, UniProt P14616).
T2 construct: purchased DiscoverX Co. (contract measurement) scanMAX Kinase assay panel
T2 sequence (P14616 27-1297): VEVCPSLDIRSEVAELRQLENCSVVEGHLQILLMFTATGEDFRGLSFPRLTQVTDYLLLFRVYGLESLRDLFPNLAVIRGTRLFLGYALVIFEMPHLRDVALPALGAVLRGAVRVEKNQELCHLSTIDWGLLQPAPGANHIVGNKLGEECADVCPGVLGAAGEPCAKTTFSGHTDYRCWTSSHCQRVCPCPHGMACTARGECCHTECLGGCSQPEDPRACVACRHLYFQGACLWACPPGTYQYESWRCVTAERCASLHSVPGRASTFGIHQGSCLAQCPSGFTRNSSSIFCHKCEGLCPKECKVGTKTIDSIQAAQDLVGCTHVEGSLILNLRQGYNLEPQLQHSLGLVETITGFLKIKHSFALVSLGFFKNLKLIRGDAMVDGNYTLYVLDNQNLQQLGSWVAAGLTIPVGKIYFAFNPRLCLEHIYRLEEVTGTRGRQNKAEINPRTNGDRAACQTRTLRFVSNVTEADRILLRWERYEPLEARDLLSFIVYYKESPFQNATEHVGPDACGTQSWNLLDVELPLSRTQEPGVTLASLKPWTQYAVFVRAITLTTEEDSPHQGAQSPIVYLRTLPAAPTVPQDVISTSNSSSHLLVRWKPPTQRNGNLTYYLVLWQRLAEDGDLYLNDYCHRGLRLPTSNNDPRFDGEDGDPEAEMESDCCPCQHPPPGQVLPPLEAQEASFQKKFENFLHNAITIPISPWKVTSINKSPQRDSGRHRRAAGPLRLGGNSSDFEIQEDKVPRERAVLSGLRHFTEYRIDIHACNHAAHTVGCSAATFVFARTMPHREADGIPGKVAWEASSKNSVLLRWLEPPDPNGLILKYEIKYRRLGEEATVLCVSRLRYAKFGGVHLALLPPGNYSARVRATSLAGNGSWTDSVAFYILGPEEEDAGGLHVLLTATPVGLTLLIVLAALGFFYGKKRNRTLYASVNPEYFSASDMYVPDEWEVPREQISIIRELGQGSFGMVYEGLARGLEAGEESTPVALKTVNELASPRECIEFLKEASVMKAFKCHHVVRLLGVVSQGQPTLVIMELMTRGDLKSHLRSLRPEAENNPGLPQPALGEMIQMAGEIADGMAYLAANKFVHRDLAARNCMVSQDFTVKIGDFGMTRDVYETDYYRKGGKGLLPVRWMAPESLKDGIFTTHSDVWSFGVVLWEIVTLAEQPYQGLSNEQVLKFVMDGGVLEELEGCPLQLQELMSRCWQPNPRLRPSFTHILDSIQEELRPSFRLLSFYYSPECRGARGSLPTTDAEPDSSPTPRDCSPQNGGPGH
The conditions noted are these: INSRR; 1 uM. How it is done: as §1, §2, §3, §4

The target of assay [3] is T3, kinases of the scanMAX Kinase assay panel (Homo sapiens, UniProt P19525).
T3 construct: purchased DiscoverX Co. (contract measurement) scanMAX Kinase assay panel
T3 sequence (P19525 whole entry): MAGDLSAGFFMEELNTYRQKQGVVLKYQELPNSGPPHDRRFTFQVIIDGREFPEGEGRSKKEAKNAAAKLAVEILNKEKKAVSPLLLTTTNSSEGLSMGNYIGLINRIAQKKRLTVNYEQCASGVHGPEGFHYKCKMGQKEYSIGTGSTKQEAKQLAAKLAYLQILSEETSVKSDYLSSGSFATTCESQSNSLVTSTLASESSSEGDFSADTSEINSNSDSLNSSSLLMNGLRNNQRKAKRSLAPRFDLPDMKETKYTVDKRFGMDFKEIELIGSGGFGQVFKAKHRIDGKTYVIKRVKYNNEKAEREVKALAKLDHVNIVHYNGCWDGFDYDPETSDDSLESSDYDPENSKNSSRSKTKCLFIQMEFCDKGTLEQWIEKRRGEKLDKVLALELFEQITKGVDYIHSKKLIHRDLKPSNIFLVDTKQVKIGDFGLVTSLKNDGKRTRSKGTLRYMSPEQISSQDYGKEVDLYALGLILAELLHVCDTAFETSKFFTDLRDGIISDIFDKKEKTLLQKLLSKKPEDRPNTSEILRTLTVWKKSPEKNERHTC
The conditions noted are these: PRKR; 1 uM. The method, then:
as §1, §2, §3, §4

For assay [4], the target named is T4, kinases of the scanMAX Kinase assay panel (Homo sapiens, UniProt P22455).
T4 construct: purchased DiscoverX Co. (contract measurement) scanMAX Kinase assay panel
The conditions noted are these: FGFR4; 1 uM. The method, then: as §1, §2, §3, §4

In assay [5] the target is T5, kinases of the scanMAX Kinase assay panel (Homo sapiens, UniProt P35590).
T5 construct: purchased DiscoverX Co. (contract measurement) scanMAX Kinase assay panel
T5 sequence (P35590 22-1138): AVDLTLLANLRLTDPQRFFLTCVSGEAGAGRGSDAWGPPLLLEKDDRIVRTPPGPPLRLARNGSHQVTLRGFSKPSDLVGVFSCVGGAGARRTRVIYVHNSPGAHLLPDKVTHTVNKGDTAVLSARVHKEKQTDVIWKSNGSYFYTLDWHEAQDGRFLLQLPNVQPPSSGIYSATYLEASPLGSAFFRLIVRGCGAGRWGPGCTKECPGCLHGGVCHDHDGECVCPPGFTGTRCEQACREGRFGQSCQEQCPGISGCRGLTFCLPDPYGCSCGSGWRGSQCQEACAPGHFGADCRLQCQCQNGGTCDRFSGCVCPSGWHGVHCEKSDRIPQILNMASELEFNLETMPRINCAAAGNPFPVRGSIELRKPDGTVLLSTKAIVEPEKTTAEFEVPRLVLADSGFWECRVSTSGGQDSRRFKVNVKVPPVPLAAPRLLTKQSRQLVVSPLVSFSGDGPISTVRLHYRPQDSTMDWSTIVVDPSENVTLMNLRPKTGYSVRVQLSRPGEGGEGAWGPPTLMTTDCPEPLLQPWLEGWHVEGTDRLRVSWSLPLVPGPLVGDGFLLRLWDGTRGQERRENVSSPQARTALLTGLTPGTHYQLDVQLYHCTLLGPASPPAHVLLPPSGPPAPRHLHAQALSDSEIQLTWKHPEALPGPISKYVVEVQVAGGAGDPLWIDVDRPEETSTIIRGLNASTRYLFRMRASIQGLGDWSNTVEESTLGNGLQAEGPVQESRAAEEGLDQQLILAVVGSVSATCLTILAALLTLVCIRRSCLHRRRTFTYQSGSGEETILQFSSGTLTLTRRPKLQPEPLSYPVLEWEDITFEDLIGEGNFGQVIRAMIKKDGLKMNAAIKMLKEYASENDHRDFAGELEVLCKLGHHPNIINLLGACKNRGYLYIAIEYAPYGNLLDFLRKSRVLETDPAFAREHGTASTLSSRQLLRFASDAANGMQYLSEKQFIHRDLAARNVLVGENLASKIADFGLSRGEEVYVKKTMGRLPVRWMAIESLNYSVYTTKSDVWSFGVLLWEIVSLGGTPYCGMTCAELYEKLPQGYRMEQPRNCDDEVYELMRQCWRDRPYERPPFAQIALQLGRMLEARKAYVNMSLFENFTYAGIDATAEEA
The note with it: kinase TIE1; 1 uM in DMSO. The method, then:
as §1, §2, §3, §4

For assay [6], the target named is T6, kinases of the scanMAX Kinase assay panel (Homo sapiens, UniProt P41240).
T6 construct: purchased DiscoverX Co. (contract measurement) scanMAX Kinase assay panel
T6 sequence (P41240 whole entry): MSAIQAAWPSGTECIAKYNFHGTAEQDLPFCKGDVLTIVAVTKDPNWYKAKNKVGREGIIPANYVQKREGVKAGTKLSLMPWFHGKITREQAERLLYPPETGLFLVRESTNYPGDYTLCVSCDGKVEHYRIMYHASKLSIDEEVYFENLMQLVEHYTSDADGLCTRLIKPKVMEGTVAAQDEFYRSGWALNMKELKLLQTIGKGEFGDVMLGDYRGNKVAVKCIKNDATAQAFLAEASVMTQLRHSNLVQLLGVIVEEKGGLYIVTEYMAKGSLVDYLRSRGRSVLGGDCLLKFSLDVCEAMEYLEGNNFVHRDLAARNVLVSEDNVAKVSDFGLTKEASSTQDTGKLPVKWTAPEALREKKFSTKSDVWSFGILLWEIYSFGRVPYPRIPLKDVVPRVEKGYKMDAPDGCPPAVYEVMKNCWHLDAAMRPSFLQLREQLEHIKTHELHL
The conditions noted are these: CSK; 1 uM. The method, then: as §1, §2, §3, §4

Assay [7] addresses T7, kinases of the scanMAX Kinase assay panel (Homo sapiens, UniProt P52564).
T7 construct: purchased DiscoverX Co. (contract measurement) scanMAX Kinase assay panel
T7 sequence (P52564 1-334): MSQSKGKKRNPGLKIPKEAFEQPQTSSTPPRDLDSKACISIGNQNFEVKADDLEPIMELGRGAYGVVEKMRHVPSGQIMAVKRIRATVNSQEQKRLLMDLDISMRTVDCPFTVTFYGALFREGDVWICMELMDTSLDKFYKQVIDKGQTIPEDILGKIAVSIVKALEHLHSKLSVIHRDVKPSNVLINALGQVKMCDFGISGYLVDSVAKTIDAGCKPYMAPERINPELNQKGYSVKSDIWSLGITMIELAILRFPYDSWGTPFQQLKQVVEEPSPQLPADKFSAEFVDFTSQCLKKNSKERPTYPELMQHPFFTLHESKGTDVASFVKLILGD
The note with it: MEK6; 1 uM. How it is done:
as §1, §2, §3, §4

Assay [8] addresses T8, kinases of the scanMAX Kinase assay panel (Homo sapiens, UniProt P54753).
T8 construct: purchased DiscoverX Co. (contract measurement) scanMAX Kinase assay panel
T8 sequence (P54753 34-998): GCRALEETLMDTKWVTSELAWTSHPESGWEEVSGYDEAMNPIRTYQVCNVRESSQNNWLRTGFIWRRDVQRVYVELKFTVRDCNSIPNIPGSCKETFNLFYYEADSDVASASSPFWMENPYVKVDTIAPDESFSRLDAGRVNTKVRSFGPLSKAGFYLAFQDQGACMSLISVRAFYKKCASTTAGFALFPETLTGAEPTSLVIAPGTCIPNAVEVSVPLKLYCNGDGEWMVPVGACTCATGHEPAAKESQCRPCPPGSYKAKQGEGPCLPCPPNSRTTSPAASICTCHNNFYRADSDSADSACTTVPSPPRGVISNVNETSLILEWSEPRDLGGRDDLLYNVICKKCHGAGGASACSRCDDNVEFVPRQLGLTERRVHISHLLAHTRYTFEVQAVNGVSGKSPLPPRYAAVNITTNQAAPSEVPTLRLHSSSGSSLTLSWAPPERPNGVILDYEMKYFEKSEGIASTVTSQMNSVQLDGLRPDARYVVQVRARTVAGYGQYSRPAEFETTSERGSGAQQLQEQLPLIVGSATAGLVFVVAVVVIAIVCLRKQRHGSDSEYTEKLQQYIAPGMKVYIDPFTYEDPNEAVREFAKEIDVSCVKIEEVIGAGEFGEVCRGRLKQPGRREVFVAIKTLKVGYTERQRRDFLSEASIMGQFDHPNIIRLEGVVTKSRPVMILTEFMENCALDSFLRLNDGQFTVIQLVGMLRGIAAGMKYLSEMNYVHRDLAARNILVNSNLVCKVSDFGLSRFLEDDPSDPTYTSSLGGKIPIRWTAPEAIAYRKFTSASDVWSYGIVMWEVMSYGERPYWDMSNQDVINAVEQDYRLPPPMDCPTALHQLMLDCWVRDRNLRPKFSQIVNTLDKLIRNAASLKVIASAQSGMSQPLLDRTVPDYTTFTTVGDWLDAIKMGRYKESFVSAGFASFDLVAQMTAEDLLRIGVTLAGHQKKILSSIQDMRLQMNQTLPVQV
The note with it: EPHB3; 1 uM. The method, then:
as §1, §2, §3, §4

For assay [9], the target named is T9, kinases of the scanMAX Kinase assay panel (Homo sapiens, UniProt Q13882).
T9 construct: purchased DiscoverX Co. (contract measurement) scanMAX Kinase assay panel
T9 sequence (Q13882 whole entry): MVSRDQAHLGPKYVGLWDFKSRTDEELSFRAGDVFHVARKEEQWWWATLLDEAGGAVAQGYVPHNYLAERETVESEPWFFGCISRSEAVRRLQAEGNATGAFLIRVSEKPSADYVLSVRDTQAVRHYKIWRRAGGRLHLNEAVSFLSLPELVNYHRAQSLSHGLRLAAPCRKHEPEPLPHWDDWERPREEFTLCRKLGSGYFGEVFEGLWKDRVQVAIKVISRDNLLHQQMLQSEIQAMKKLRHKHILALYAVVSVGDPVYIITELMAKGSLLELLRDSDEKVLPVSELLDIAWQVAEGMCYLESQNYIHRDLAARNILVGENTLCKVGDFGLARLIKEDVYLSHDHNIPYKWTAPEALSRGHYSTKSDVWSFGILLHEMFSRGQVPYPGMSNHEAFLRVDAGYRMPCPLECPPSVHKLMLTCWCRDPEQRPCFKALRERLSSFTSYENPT
The note with it: BRK; 1 uM. How it is done: as §1, §2, §3, §4

Assay [10] has as its target T10, kinases of the scanMAX Kinase assay panel (Homo sapiens, UniProt Q6P2M8).
T10 construct: purchased DiscoverX Co. (contract measurement) scanMAX Kinase assay panel
The note with it: CAMK1B; 1 uM. How it is done: as §1, §2, §3, §4

Assay [11] concerns the target T11, kinases of the scanMAX Kinase assay panel (Homo sapiens, UniProt Q8IU85).
T11 construct: purchased DiscoverX Co. (contract measurement) scanMAX Kinase assay panel
The note with it: CAMK1D; 1 uM. How it is done:
as §1, §2, §3, §4

Assay [12] deals with T12, kinases of the scanMAX Kinase assay panel (Homo sapiens, UniProt Q92772).
T12 construct: purchased DiscoverX Co. (contract measurement) scanMAX Kinase assay panel
T12 sequence (Q92772 1-493): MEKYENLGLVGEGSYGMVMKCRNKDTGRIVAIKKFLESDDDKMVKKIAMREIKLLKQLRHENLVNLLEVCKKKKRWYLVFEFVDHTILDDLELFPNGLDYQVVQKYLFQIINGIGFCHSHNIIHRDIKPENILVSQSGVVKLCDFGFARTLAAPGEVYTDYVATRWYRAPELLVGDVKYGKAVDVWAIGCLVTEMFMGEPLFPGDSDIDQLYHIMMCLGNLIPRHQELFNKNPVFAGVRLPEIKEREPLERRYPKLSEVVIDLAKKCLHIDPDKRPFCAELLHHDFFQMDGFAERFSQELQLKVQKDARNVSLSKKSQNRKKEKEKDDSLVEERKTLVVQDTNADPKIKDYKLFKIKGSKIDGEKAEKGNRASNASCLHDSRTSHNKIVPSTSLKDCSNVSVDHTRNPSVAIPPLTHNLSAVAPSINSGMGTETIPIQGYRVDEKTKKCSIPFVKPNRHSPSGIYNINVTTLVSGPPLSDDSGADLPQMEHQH
The conditions noted are these: CDKL2; 1 uM. The method, then:
as §1, §2, §3, §4

These results are taken from patent US11208412B2 (DAEGU-GYEONGBUK MEDICAL INNOVATION FOUNDATION, priority 2017, dated 2021).

T10 sequence (Q6P2M8 whole entry): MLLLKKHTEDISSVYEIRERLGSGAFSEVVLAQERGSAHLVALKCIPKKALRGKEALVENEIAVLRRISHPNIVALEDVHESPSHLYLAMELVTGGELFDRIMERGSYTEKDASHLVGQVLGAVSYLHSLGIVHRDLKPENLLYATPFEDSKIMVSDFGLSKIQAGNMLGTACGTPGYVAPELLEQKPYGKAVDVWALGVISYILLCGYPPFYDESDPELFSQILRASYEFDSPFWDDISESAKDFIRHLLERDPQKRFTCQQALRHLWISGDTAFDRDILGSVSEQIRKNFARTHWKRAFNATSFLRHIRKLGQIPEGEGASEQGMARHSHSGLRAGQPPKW
T11 sequence (Q8IU85 whole entry): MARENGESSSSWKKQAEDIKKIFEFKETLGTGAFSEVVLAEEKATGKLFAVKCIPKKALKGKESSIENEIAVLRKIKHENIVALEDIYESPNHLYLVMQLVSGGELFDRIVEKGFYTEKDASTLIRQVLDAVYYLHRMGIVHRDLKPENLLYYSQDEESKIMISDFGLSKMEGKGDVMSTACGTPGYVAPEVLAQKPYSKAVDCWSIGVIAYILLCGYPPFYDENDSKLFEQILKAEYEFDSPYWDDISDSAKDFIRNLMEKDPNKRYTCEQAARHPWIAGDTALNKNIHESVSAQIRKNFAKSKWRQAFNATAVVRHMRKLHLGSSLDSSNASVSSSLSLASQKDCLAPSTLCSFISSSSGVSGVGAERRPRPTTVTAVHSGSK

With `CNc1nc(Nc2ccc(C(=O)N3CCOCC3)cc2OC)nc2[nH]cc(C#N)c12` [Example 1, 2-((2-methoxy-4-(morpholine-4-carbonyl)phenyl)amino)-4-(methylamino)-7H-pyrrolo[2,3-d]pyrimidine-5-carbonitrile], the remaining binding at 1 µM was 76% in [1]; 61% in assay [2]; 95% in [3]; 89% in assay [4]; 96% in assay [5]; 99% in assay [6]. The remaining binding at 1 µM in assay [7] is 43%; in assay [8] it was 93%; in [9] it was 93%; in assay [10], 45%; in assay [11], 50%; in assay [12] it was 99%.

As to `CC1(Nc2nc(Nc3cnn([C@H]4CCN(C5COC5)C[C@@H]4F)c3Cl)nc3[nH]cc(C#N)c23)CC1` [Example 52, 2-((5-chloro-1-((3S,4S)-3-fluoro-1-(oxetane-3-yl)piperidine-4-yl)-1H-pyrazole-4-yl)amino)((1-methylcyclopropyl)amino)-7H-pyrrolo[2,3-d]pyrimidine-5-carbonitrile], the remaining binding at 1 µM in assay [1] amounted to 94%; in [2] it was 6.5%; in [3], 42%; in assay [4], 31%; in assay [5], 19%; in assay [6] it was 33%. Besides, the remaining binding at 1 µM in assay [7] was 19%; in assay [8], 95%; in assay [9], 24%; in assay [10], 64%; in assay [11], 14%; in [12] it was 73%.

For the compound `CCNc1nc(Nc2ccc(C(=O)N3CCC(N4CCOCC4)CC3)cc2OC)nc2[nH]cc(C(F)(F)F)c12` [Example 104, (4-((4-(ethylamino)-5-(trifluoromethyl)-7H-pyrrolo[2,3-d]pyrimidine-2-yl)amino)-3-methoxyphenyl)(4-morpholinopiperidine-1-yl)methanone], the remaining binding at 1 µM in assay [1] was 100%; in assay [2] it was 3.2%; in assay [3] it was 85%; in assay [4], 38%; in assay [5], 100%; in [6], 85%. Further, the remaining binding at 1 µM came out at 92% in [7]; 100% in assay [8]; 64% in assay [9]; 21% in [10]; 66% in [11]; 100% in assay [12].
